We go through 1 compound from article PMC11965660, “Isobavachalcone ameliorates Alzheimer disease pathology by autophagy-mediated clearance of amyloid beta and inhibition of NLRP3 inflammasome in primary astrocytes and 5x-FAD mice” (Frontiers in Pharmacology, 2025).

Read-outs that look alike come from different tables or passages of the source.

Experiment [1] deals with Aβ plaques. The experiment in a line: Immunohistochemistry of Aβ in hippocampus. Type of experiment: in vivo, 5x-FAD mice. To be noted: for average number of Aβ plaques: 5x-FAD mice. From the text: (§1) Hemizygous 5x-FAD transgenic mice (B6.Cg-Tg(APPSwFlLon, PSEN1*M146L*L286V) 6799Vas/Mmjax; MMRRC Strain: 034848-JAX) on congenic C57BL/6J genetic background were used for experiments. The 5x-FAD mice were genotyped using APP-specific qPCR probes to detect the transgene as per the protocol of Jackson Laboratory. Six months old 5x-FAD mice were randomly divided into three groups (n = 5), based on their body weights, with three males and two females in each group. We used mixed-cohort of males and females for our study to exclude any gender biased effect of IBC. Also, AD symptoms are more pronounced in females than in males ([Aggarwal and Mielke, 2023]), making it possible that males and females respond differently to the drug and treatment. Considering this, it is important to show effect of IBC on both sexes. At this age, Aβ deposition and neuroinflammation has already progressed in these mice. We have used IBC as a curative drug rather than a preventive drug. Prior to the initiation of the study, all the animals were acclimatized for 1 week under standard laboratory conditions; animals were drug naive with no prior procedures performed. All testing were performed from 1 to 4 p.m. IBC was orally (OD) given to two groups at different doses, 25 mg/kg (1% DMSO, 2% Tween 80, 19% PEG200, and 78% distilled water) and 50 mg/kg (1% DMSO, 5% Tween 80, 19% PEG200% and 75% distilled water) using oral gavage. 5x-FAD control mice were administered with vehicle (1% DMSO, 5% Tween 80, 19% PEG200% and 75% distilled water). For behavioral and Immunohistochemistry assays, experimenters were blinded to animal identity while carrying out the procedures.
Mice’s hippocampus tissue was fixed in 10% formalin. Dehydrated tissue slices were made and placed on slides. For analysis, tissue was rehydrated following subsequent incubation in xylene, xylene: ethanol, 100% ethanol, 90% ethanol, 70% and 50% ethanol. After tissue rehydration, cells were permeabilized using 0.4% Triton-X100 for 10 min. […] Images were taken in a CQ1 high throughput imaging system and analyzed using cell pathfinder software.

In experiment [2] the test system is NLRP3 inflammasome. Kind of experiment: NLRP3 inflammasome activation in primary astrocytes, IL-1β and IL-18 release by ELISA. Conditions: for IC50: Mus musculus, Astrocyte, primary astrocytes, microglial conditional media, LPS 1 μg/ml 4 h, IBC 1 h, ATP 5 mM 30 min, ELISA. The class given is cell-based, C57BL/6J mice. Here is the method: Primary astrocytes were first treated with microglia conditional media to induce astrogliosis ([Liddelow et al., 2017]). For this, the microglia (N9) cell line, provided by Dr. Anirban Basu (National Brain Research Centre, Gurgaon, India) was cultured in RPMI-1640. N9 cells (Passage 28-35) were seeded in 24 well plate at density 0.05 × 10^6 per well. The cells were treated with 1 μg/ml LPS, and supernatant was collected after 24 h. Seeded astrocytes were then treated with the LPS stimulated N9 cells supernatant for 24 h. Thereafter, the treatment for NLRP3 inflammasome activation was given, including priming with fresh 1 μg/ml LPS for 4 h, followed by washing and IBC or MCC950 (100 nM) treatment for 1 h in incomplete media (media without fetal bovine serum). ATP at 5 mM concentration was used as secondary signal for 30 min.
The experiment was terminated by collecting the cell supernatant.
After the termination of experiments, the supernatant was collected and analyzed for levels of cytokines. For measuring IL-1β and IL-18, supernatant collected after NLRP3 inflammasome activation as mentioned above, was subjected to ELISA. For detection of IL-1β in mice cortex, mice cortices were isolated and homogenized in RIPA buffer to measure IL-1β in homogenates. The manufacturer’s protocol was followed for measuring the cytokines. The levels of measured cytokines were normalized with the total protein content of the cells. For total protein content of cell pellet lysed with lysis buffer (0.2 N NaCl and 1% Triton-X 100) was measured.
IC50 of Isobavachalcone for IL-1β and IL-18 was calculated by using GraphPad Prism 8 software using non-linear regression analysis model. Log (inhibitor) vs. response curve was plotted.

Experiment [3] has as its system 5x-FAD mice. Kind of experiment: Rotarod test. The class given is in vivo. From the text:
Hemizygous 5x-FAD transgenic mice (B6.Cg-Tg(APPSwFlLon, PSEN1*M146L*L286V) 6799Vas/Mmjax; MMRRC Strain: 034848-JAX) on congenic C57BL/6J genetic background were used for experiments. The 5x-FAD mice were genotyped using APP-specific qPCR probes to detect the transgene as per the protocol of Jackson Laboratory. Six months old 5x-FAD mice were randomly divided into three groups (n = 5), based on their body weights, with three males and two females in each group. We used mixed-cohort of males and females for our study to exclude any gender biased effect of IBC. Also, AD symptoms are more pronounced in females than in males ([Aggarwal and Mielke, 2023]), making it possible that males and females respond differently to the drug and treatment. […]
To check the effect of IBC on the behavior of 5x-FAD mice, open field test (OFT), rotarod (Make; Ugo Basile, rota-rod for mice 7650) and radial arm maze (Make; Ugo Basile) tests were performed. […] After acclimatizing mice with rotarod for 5 days, their latency to fall was calculated on the day of analysis. […] Distance traveled, speed, time spent in corner and center zones and mobile episodes were recorded through an automated video tracking system using AnyMaze software. […] The movement of mice was tracked with the help of automated AnyMaze software connected with a tracking camera and various memory retention parameters were assessed.
On the technique in general: Falling from the rotarod earlier than controls is read as motor impairment.

Experiment [4] has as its system 5x-FAD mice hippocampus. The experiment in a line: Immunoblotting of autophagy, NLRP3 inflammasome and neuroinflammation proteins in hippocampus. Type of experiment: in vivo. To be noted: 25 and 50 mg/kg. On the procedure:
Cellular lysates were prepared using radio immuno precipitation assay (RIPA) buffer for protein analysis. Briefly, the cell pellet was dissolved in RIPA buffer containing sodium fluoride, sodium orthovanadate, phenyl methyl sulfonyl fluoride (PMSF) and 1% protease inhibitor cocktail for 1 h with vertexing sample every 15 min. The supernatant was collected after high-speed centrifugation of samples for 20 min at 4°C. For analysis of proteins in mice hippocampi, the hippocampi isolated from mice brains was immediately washed with saline and stored in liquid nitrogen. For lysates preparation, tissue was homogenized in RIPA buffer substituted with sodium fluoride, sodium orthovanadate, phenyl methyl sulfonyl fluoride and 1% protease inhibitor cocktail. Total protein was measured using Bradford assay. Proteins were separated using SDS-PAGE and then transferred from gel to PVDF membrane. The protein of interest was labeled with a specific primary antibody overnight at 4°C. Further, the blot was incubated with corresponding HRP-conjugated secondary antibody for 1 h at room temperature. The band were visualized in the Genaxy Chemi Doc imaging system (Make: Syngene, Maryland, USA; Model: G: BOX, XT-4). Densitometry analysis of all the immunoblots was performed by using ImageJ software. Band density of proteins was normalized with β-actin. The phosphorylated proteins were normalized with their total forms.
as §1
For orientation: Immunoblotting shows a protein as a band on a membrane.

Consider `CC(C)=CCc1c(O)ccc(C(=O)/C=C/c2ccc(O)cc2)c1O` [IBC, isobavachalcone], for which the “average number of Aβ plaques” value in experiment [1] (25 mg/kg oral 2 months) is on record as 21. Moreover, the “average number of Aβ plaques” value in experiment [1] (50 mg/kg oral 2 months) was determined as 15. Besides, the “total Aβ fluorescence intensity” value in experiment [1] (25 and 50 mg/kg, vs 5x-FAD control) is “highly significant decline”. In addition, in experiment [2] (read-out: IC50 for IL-1β release), the IC50 (commonly the concentration at which inhibition is half-maximal) was 2950 nM. Further, in experiment [2] (read-out: IC50 for IL-18 release), the IC50 was determined as 2750 nM. Also, the “inhibitory effect on release of IL-1β when autophagy is inhibited” value in experiment [2] (pre-treatment with 20 nM bafilomycin A1 for 1 h, ELISA and western blotting) is reported as “completely reversed”. Also, the “latency to fall from rotarod” value in experiment [3] (25 mg/kg oral) came out at 92 s. Also, the “latency to fall from rotarod” value in experiment [3] (50 mg/kg oral) worked out at 118 s. In experiment [4], the “GFAP expression (western blot)” value is “decreased expression”. Besides, in experiment [4] (western blot), the ASC level result is reported as “significant abrogation”, the ATG7 expression entry was “increased expression”, the CASP1 level entry is “significant abrogation” and the IBA1 expression entry is reported as “decreased expression”. In experiment [4] (western blot), the SQSTM1 expression result is “significantly decreased”, the “cleavage of IL-1β” value is “reduced cleavage” and the pAMPK expression entry is given as “increased expression”.
